The source of these data is article PMC9146934 (Membranes, 2022).

What all share (type): cell-based
Test [1] deals with T1, Hs-α4β2γ2 GABA-A receptor (Homo sapiens, UniProt P18507+P47870+P48169).
T1 construct: expressed in transfected cells; host or cells: Xenopus laevis oocytes (cRNA injection; α4 in pcDNA3.1(+))
As to the kind of experiment: Two-electrode voltage-clamp of GABA-induced currents, Hs-α4β2γ2 expressed in Xenopus laevis oocytes. The method, then: (§1) cRNAs were in vitro synthesized from linearized plasmids using the M-message M-machine transcription kit (Thermo Fisher, Waltham, MA USA) following the manufacturer’s instructions. The cRNA concentration was adjusted to 1 µg/µL. Preparation and injection of X. laevis oocytes were completed as previously described. The oocytes were injected with 30 nL of a solution containing the cRNA of interest. Injected oocytes were maintained at 19 °C in a survival solution containing (in mM): NaCl, 96; KCl, 2; CaCl2, 1.8; MgCl2, 1; Hepes, 5; Na-pyruvate, 2.5; and gentamycin, 0.025, pH = 7.2 with NaOH, renewed daily.
(§2) Expressed currents were recorded at room temperature using the two-electrode voltage-clamp method 1–3 days after injection. Electrodes were pulled from borosilicate glass (Warner, ref GC150T10) and filled with 3 M KCl. […] Drugs were applied using a gravity-driven perfusion system at a speed of 2 mL/min.
(§3) Oocytes were perfused with the following ND solution (in mM): NaCl, 96; KCl, 3; CaCl2, 0.5; MgCl2, 1; HEPES, 5, with pH set at 7.4 with NaOH at ~1 mL/min. The reversal potential of the Ap-RDL receptor was measured in solutions containing (in mM): NaCl, Na-acetate or TEACl (tetraethylammonium chloride), 100; HEPES, 5 with pH set at 7.4, with NaOH or TEAOH. […] Fipronil or picrotoxin were dissolved at the final concentrations from stock solutions in DMSO (dimethylsulfoxide) at 200 and 10 mM, respectively. The final DMSO concentration was always less than 0.2%.
(§4) With Rel.Cur. the current amplitude at each concentration relative to the current recorded in the absence of antagonist; IC50, the concentration for half-maximum inhibition, log ([Inhib]) the logarithm of the inhibitor concentration, and p a slope factor.
With t, the time of the recording; Rel.Cur., the current amplitude at each concentration relative to the current recorded in the absence of antagonist; Amp, the amplitude of the exponential, Tau Block, the time constant of the exponential, and R the residual non-inhibited current at the steady-state of the effects. […]

A further test deals with T2, Vd-RDL1 GABAr (Varroa destructor, UniProt A0A343W7T5).
T2 sequence (A0A343W7T5 35-585): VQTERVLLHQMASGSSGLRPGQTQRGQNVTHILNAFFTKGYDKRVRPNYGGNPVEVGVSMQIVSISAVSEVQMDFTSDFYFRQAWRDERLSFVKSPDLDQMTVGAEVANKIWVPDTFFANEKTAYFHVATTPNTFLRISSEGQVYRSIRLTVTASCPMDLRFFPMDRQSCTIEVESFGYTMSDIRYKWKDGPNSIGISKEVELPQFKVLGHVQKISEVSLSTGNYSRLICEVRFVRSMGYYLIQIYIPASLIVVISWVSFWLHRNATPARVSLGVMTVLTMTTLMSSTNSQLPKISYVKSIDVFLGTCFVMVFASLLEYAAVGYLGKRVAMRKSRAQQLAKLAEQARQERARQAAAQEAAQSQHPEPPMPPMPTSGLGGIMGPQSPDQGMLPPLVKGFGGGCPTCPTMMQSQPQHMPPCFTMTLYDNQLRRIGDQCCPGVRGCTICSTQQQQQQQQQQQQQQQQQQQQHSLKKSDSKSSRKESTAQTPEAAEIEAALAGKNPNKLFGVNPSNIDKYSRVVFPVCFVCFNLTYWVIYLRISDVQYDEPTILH
Kind of test: Two-electrode voltage-clamp of GABA-induced currents, Vd-RDL1 expressed in Xenopus laevis oocytes. The procedure:
as §1, §2, §3, §4
(§5) With t, the time of the recording; Rel.Cur., the current amplitude at each concentration relative to the current recorded in the absence of antagonist; Amp, the amplitude of the exponential, Tau Block, the time constant of the exponential, and R the residual non-inhibited current at the steady-state of the effects. The relative block (Rel.B) is estimated as 1-R expressed in %.
In general terms: In two-electrode clamp one electrode senses voltage and the other passes current.

The next test concerns the target T3, Vd-RDL3 GABAr (Varroa destructor, UniProt A0A343W7T7).
T3 sequence (A0A343W7T7 31-591): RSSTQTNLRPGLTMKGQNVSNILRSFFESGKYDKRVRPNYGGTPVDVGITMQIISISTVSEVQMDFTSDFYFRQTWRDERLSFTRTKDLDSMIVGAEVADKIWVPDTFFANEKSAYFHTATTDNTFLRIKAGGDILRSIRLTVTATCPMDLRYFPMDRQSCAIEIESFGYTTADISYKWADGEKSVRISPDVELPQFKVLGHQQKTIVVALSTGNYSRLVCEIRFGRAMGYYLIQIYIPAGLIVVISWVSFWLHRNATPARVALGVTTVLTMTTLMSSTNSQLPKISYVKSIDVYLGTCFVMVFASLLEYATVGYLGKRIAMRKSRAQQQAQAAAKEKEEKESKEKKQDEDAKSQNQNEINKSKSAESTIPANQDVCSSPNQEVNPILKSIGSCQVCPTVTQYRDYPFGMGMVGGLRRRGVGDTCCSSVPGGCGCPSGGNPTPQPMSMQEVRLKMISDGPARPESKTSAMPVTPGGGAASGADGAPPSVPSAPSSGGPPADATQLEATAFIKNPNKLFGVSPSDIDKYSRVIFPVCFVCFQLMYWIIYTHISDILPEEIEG
As to the kind of experiment: Two-electrode voltage-clamp of GABA-induced currents, Vd-RDL3 expressed in Xenopus laevis oocytes. The method, then: as §1, §2, §3, §4, §5

Test [2] addresses T4, Hs-α2β2γ2 GABA-A receptor (Homo sapiens, UniProt P18507+P47869+P47870).
T4 construct: expressed in transfected cells; host or cells: Xenopus laevis oocytes (cRNA injection)
As to the kind of experiment: cell-based. The method, then: as §1, §2, §3, §4, §5

The next test concerns the target T5, Am-RDL GABAr (Apis mellifera, UniProt A0A8U0Y4W2).
T5 sequence (A0A8U0Y4W2 19-476): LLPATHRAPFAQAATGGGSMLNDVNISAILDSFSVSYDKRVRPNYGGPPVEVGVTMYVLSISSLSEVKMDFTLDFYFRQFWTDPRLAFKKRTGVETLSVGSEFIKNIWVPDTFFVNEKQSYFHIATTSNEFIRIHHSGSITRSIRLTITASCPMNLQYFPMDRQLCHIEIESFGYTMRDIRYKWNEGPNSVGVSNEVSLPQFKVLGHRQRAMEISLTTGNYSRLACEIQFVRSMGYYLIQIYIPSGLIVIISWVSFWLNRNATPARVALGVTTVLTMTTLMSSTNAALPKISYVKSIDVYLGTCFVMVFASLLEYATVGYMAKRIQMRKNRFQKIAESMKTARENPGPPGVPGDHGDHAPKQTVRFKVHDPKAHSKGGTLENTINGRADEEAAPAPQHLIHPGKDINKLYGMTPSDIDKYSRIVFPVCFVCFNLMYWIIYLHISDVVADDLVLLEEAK
Kind of test: Two-electrode voltage-clamp of GABA-induced currents, Am-RDL expressed in Xenopus laevis oocytes. The procedure:
as §1, §2, §3, §4, §5

The target in a further test is T6, Ap-RDL1 GABAr (Acyrthosiphon pisum, UniProt A0A385J708, C18R).
T6 sequence (A0A385J708 33-567 C18R): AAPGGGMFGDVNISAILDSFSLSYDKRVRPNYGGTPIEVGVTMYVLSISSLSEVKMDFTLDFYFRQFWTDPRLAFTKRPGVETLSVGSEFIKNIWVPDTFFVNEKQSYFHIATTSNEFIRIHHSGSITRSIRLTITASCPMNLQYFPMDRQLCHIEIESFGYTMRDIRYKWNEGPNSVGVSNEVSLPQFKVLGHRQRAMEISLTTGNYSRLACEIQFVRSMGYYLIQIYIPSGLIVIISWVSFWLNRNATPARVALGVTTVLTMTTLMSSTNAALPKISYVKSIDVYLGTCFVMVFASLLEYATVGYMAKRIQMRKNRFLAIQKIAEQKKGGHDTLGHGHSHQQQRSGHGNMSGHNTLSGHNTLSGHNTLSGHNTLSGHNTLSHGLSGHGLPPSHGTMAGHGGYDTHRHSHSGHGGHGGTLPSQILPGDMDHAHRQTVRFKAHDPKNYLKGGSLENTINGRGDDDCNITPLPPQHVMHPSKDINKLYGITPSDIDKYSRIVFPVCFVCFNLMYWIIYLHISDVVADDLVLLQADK
Kind of test: Two-electrode voltage-clamp of GABA-induced currents, Ap-RDL1 expressed in Xenopus laevis oocytes. The procedure:
as §1, §2, §3, §4, §5

The target of another test is T7, Vd-RDL2 GABAr (Varroa destructor, UniProt A0A3G3MDS2).
T7 sequence (A0A3G3MDS2 20-661): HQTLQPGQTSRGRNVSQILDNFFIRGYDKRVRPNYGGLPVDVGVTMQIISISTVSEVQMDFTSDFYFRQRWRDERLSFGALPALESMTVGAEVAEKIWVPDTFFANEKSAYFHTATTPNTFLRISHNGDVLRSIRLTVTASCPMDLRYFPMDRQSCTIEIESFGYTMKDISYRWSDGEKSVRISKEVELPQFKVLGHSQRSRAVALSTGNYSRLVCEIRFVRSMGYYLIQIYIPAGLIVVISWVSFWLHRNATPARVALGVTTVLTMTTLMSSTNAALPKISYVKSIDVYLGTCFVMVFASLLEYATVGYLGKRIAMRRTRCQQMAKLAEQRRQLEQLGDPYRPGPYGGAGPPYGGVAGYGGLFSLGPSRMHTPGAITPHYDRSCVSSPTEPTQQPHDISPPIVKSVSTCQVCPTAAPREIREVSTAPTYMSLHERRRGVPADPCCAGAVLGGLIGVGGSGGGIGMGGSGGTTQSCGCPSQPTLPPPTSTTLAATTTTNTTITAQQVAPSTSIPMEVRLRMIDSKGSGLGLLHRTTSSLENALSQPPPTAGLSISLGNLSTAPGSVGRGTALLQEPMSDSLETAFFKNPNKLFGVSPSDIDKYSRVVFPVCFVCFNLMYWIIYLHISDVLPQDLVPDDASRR
As to the kind of experiment: Two-electrode voltage-clamp of GABA-induced currents, Vd-RDL2 expressed in Xenopus laevis oocytes. The method, then: as §1, §2, §3, §4, §5

The mark [3] stands for this setting: peak current, oocytes clamped at −60 mV.
Where [4] appears, read: dieldrin 1 µM, GABA 100 µM, mono-exponential fit.

T1 sequence (P48169 36-554): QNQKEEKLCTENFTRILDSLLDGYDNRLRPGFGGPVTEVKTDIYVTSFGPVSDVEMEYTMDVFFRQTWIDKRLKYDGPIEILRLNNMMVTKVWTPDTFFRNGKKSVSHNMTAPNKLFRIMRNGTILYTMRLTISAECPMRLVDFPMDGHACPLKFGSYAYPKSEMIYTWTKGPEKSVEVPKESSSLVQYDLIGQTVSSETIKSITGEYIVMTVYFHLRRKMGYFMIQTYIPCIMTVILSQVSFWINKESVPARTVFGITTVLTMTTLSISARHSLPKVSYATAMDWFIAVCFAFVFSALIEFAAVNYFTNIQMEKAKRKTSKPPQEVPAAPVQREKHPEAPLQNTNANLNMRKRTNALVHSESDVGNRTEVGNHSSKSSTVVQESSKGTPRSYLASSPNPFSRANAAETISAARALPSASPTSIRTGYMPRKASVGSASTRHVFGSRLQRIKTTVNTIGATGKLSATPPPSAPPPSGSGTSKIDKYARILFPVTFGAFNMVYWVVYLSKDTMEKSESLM
T1 sequence (P47870 25-512 limits assumed): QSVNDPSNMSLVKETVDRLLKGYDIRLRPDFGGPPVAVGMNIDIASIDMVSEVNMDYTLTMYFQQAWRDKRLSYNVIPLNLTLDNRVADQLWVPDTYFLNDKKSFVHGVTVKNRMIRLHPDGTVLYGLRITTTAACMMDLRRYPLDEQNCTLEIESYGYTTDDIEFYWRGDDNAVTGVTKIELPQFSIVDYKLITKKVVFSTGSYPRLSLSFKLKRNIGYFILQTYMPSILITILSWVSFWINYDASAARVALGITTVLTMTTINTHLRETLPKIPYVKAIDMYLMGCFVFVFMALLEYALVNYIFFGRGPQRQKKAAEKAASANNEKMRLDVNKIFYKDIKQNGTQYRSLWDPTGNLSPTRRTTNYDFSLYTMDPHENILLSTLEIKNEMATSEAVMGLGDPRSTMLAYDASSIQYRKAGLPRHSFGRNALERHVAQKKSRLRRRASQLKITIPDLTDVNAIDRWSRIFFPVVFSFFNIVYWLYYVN
T1 sequence (P18507 40-475): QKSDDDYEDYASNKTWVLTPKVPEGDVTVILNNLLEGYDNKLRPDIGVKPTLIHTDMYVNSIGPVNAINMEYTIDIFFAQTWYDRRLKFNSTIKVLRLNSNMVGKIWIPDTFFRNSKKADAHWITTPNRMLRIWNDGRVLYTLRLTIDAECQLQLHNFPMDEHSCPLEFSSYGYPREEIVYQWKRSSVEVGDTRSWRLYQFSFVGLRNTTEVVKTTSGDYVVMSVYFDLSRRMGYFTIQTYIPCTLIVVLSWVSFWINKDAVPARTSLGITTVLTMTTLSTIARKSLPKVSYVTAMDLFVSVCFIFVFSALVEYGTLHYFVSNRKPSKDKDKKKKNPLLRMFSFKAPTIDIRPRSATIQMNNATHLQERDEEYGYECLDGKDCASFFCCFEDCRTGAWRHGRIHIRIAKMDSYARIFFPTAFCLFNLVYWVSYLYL
T4 sequence (P47869 29-451): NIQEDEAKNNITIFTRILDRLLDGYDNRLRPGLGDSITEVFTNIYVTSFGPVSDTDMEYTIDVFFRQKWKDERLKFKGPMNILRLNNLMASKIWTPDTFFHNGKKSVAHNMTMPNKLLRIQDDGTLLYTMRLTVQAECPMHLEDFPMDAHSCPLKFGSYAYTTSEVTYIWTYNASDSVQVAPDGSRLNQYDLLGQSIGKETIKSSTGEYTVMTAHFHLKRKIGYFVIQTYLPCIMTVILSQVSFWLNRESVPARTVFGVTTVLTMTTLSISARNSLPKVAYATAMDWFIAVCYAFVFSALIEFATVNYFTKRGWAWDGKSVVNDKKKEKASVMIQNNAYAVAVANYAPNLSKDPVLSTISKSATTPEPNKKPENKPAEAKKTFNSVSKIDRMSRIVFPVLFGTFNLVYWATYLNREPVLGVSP
T4 sequence (P47870 25-512 limits assumed): as the sequence (P47870 25-512 limits assumed) above
T4 sequence (P18507 40-475): as the sequence (P18507 40-475) above

For `NCCCC(=O)O` [GABA, γ-aminobutyric acid], the “p (slope factor) of GABA dose–response curve” value is given as 1.4 ± 0.2 in test [1] (logistic fit); 2.3 ± 0.2 at Vd-RDL1 GABAr (logistic fit); 2.3 ± 0.1 at Vd-RDL3 GABAr (logistic fit); 1.4 ± 0.1 in test [2]; 2.1 ± 0.2 on Am-RDL GABAr (logistic fit); 2.4 ± 0.3 on Ap-RDL1 GABAr (logistic fit). Further, the “p (slope factor) of GABA dose–response curve” value on Vd-RDL2 GABAr (logistic fit) came to 1.8 ± 0.2. Besides, the results for the EC50 on Vd-RDL1 GABAr (setting [3]), on Vd-RDL3 GABAr (setting [3]) and at Am-RDL GABAr were 269 ± 41 µM, 43.1 ± 10.4 µM and 19.3 ± 3.5 µM, respectively.
In the case of `ClC1=C(Cl)[C@]2(Cl)[C@@H]3[C@@H]4C[C@@H]([C@H]5O[C@@H]45)[C@@H]3[C@@]1(Cl)C2(Cl)Cl` [dieldrin], the “Rel.B (steady-state relative block)” value in test [1] (dieldrin 1 µM, GABA 100 µM) is on record as 80–91%; on Vd-RDL3 GABAr (dieldrin 1 µM, GABA 100 µM) it was 80–91%; in test [2] (dieldrin 1 µM, GABA 300 µM) it was 80–91%; on Am-RDL GABAr (dieldrin 1 µM, GABA 100 µM), 80–91%; on Vd-RDL2 GABAr (dieldrin 1 µM, GABA 100 µM), 51 ± 1%. In addition, the “Tau-Block (time constant of block)” value in test [1] (setting [4]) was 2 to 6 min; at Vd-RDL1 GABAr (dieldrin 1 µM, GABA 300 µM, hard to evaluate, fitted), “around 55 min”; at Vd-RDL3 GABAr (setting [4]), 2 to 6 min; in test [2] (dieldrin 1 µM, GABA 300 µM, mono-exponential fit), 2 to 6 min; at Am-RDL GABAr (setting [4]) it was 2 to 6 min; at Ap-RDL1 GABAr (dieldrin 1 µM, repetitive GABA application, mono-exponential fit), 2 to 6 min. At Vd-RDL2 GABAr (setting [4]), the “Tau-Block (time constant of block)” value fell in the range of 2 to 6 min. In addition, the “Rel.B (steady-state block)” value at Vd-RDL1 GABAr (dieldrin 1 µM, GABA 300 µM) is given as about 20%. Also, the “time to reach steady-state inhibition during successive pulses at the same dose” value on Ap-RDL1 GABAr (Figure 6B, dieldrin 1 µM, GABA 50 µM) was “more than 10 min”.

Broadly, the EC50 is the midpoint of the concentration-response curve. A high value points to a need for much substance.
